In publication PMC12165799, “Antimicrobial peptide developed with machine learning sequence optimization targets drug resistant Staphylococcus aureus in mice” (The Journal of Clinical Investigation, 2025):
Where two headings read alike, the source gives them in different places.

System: S. aureus MW2 biofilm formation
Conditions: 24 hours
Procedure: 349 Prevention of S. aureus MW2 biofilm formation
350 We evaluated the ability of the citropin 1.1-derived peptides to inhibit biofilm formation
351 following an established protocol with modifications (5). In short, we prepared exponential
352 cultures of S. aureus MW2 (adjusted to OD600 = 0.01) in TSB medium (supplemented with 0.2%
353 glucose) from overnight cultures. We added 90 µl of the bacterial culture to 10 µl of serially diluted
354 10× peptide solution in flat-bottomed 96-well polystyrene microtiter plates (Cat no. Corning 3595,
We used TSB medium containing
356 bacteria with water as the positive control, while TSB media with sterile water served as the
357 negative control. After incubation, we carefully removed the TSB medium and washed the wells
358 with PBS (Gibco, MD, USA) to remove loosely attached planktonic cells. We quantified the
359 biomass by staining the biofilms with crystal violet following an established protocol and
360 quantitated the concentration of peptide that inhibits 50% of biofilm formation (MBIC50)(8). We
361 measured the live cell count of the biofilms using XTT dye [2,3-bis(2-methyloxy-4-nitro-5-
362 sulfophenyl)-2H-tertazolium-5-carboxanilide] (ATCC, VA, USA).

Q: Which “Biofilm formation, biomass (crystal violet), percentage of untreated” value (4 μg/ml, replicate 1) does the source give for CN[C@H](CC(C)C)C(=O)N[C@H]1C(=O)N[C@@H](CC(N)=O)C(=O)N[C@H]2C(=O)N[C@H]3C(=O)N[C@H](C(=O)N[C@H](C(=O)O)c4cc(O)cc(O)c4-c4cc3ccc4O)[C@H](O)c3ccc(c(Cl)c3)Oc3cc2cc(c3O[C@@H]2O[C@H](CO)[C@@H](O)[C@H](O)[C@H]2O[C@H]2C[C@](C)(N)[C@H](O)[C@H](C)O2)Oc2ccc(cc2Cl)[C@H]1O [Vancomycin, reference compound] here?
A: 8.955

Q: What about the “Biofilm formation, live-cell viability (XTT), percentage of untreated” value (4 μg/ml, replicate 1) of the same compound?
A: -0.6369

Q: And the “Biofilm formation, biomass (crystal violet), percentage of untreated” value (4 μg/ml, replicate 2)?
A: 10.0268

Q: What about the “Biofilm formation, live-cell viability (XTT), percentage of untreated” value (4 μg/ml, replicate 2) of the same compound?
A: -0.3259

Q: And the “Biofilm formation, biomass (crystal violet), percentage of untreated” value (4 μg/ml, replicate 3)?
A: 18.3626

Q: What about the “Biofilm formation, live-cell viability (XTT), percentage of untreated” value (4 μg/ml, replicate 3) of the same compound?
A: -0.3777

Q: What about the “Biofilm formation, biomass (crystal violet), percentage of untreated” value (8 μg/ml, replicate 1) of the same compound?
A: 8.8836

Q: And the “Biofilm formation, live-cell viability (XTT), percentage of untreated” value (8 μg/ml, replicate 1)?
A: -0.674

Q: And the “Biofilm formation, biomass (crystal violet), percentage of untreated” value (8 μg/ml, replicate 2)?
A: 11.1462

Q: What about the “Biofilm formation, live-cell viability (XTT), percentage of untreated” value (8 μg/ml, replicate 2) of the same compound?
A: -0.4592

Q: And the “Biofilm formation, biomass (crystal violet), percentage of untreated” value (8 μg/ml, replicate 3)?
A: 16.9574

Q: What about the “Biofilm formation, live-cell viability (XTT), percentage of untreated” value (8 μg/ml, replicate 3) of the same compound?
A: -0.4518

Q: What about the “Biofilm formation, biomass (crystal violet), percentage of untreated” value (16 μg/ml, replicate 1) of the same compound?
A: 9.955

Q: What about the “Biofilm formation, live-cell viability (XTT), percentage of untreated” value (16 μg/ml, replicate 1) of the same compound?
A: -0.5851

Q: And the “Biofilm formation, biomass (crystal violet), percentage of untreated” value (16 μg/ml, replicate 2)?
A: 11.9559

Q: And the “Biofilm formation, live-cell viability (XTT), percentage of untreated” value (16 μg/ml, replicate 2)?
A: -0.437

Q: What about the “Biofilm formation, biomass (crystal violet), percentage of untreated” value (16 μg/ml, replicate 3) of the same compound?
A: 14.6234

Q: And the “Biofilm formation, live-cell viability (XTT), percentage of untreated” value (16 μg/ml, replicate 3)?
A: -0.4148

Q: What about the “Biofilm formation, biomass (crystal violet), percentage of untreated” value (32 μg/ml, replicate 1) of the same compound?
A: 10.1935

Q: And the “Biofilm formation, live-cell viability (XTT), percentage of untreated” value (32 μg/ml, replicate 1)?
A: -0.4962

Q: And the “Biofilm formation, biomass (crystal violet), percentage of untreated” value (32 μg/ml, replicate 2)?
A: 10.384

Q: What about the “Biofilm formation, live-cell viability (XTT), percentage of untreated” value (32 μg/ml, replicate 2) of the same compound?
A: -0.5555

Q: And the “Biofilm formation, biomass (crystal violet), percentage of untreated” value (32 μg/ml, replicate 3)?
A: 13.4802

Q: What about the “Biofilm formation, live-cell viability (XTT), percentage of untreated” value (32 μg/ml, replicate 3) of the same compound?
A: -0.4073
